Experiment: in vitro
Settings: human, hela cells

Compound `Nc1nonc1OCC(COc1nonc1N)(COc1nonc1N)COc1nonc1N` [CBK011044] has a viability at 28.5 h, 10 µM of 85.6%.

Same assay, conditions: human, hela cells, % viability

Compared with `Oc1ccc(-n2cc(-c3ccc(F)cc3)nn2)cc1` [CBK113126], `O=C(Nc1ccc2ncccc2c1)c1ccc(F)cc1Cl` [CBK159796] is higher in viability at 28.5 h, 10 µM: 82% for the first, 91.1% for the second.

First: Cc1nc(C)c(CCC(=O)NC2CCCc3ccccc32)c(=O)[nH]1 (stereo not drawn) [CBK295600]
Second: Cc1nc2nc(N)nn2c(C)c1CCC(=O)NCCc1ccccc1 [CBK304989]
The viability at 28.5 h, 10 µM of the first is higher: 98.7% for the first, 89.5% for the second.

Compared with `CCN(CC)C(=O)c1ccc(NS(=O)(=O)c2cccc(Cl)c2C)cc1` [CBK034393], `CCOC(=O)c1cc(NC(=O)CSc2nc3ccccc3[nH]2)ccc1Cl` [CBK266557] is lower in viability at 28.5 h, 10 µM: 108% for the first, 99.8% for the second.

Going from `COc1nc(N)nc2c1ncn2C1OC(CO)C(O)C1O` (stereo not drawn) [CBK201271] to `CCOC(=O)c1c[nH]c2nc(COc3ccccc3)nn2c1=O` [CBK268088], the viability at 28.5 h, 10 µM rises from 91.6% to 107%.

Going from `Fc1ccccc1-c1cn2ccnc2c(NCCc2cccnc2)n1` [CBK037473] to `O=C(c1ccccc1F)N1CCCC1c1n[nH]cc1-c1ccncc1` (stereo not drawn) [CBK283428], the viability at 28.5 h, 10 µM falls from 88.1% to 87.7%.

Going from `Cc1noc(C)c1NC(=O)Cc1cccnc1` [CBK200391] to `Cc1noc(C)c1NC(=O)N(Cc1ccc(-c2ccccc2)cc1)CC1CCNCC1` [CBK056721], the viability at 28.5 h, 10 µM rises from 96.6% to 100%.

Compared with `O=C(C1CCCC1)N1CCCC1c1nnc(-c2ccsc2)o1` (stereo not drawn) [CBK285506], `O=C(C1CCCCC1)N1CCC(n2c(=O)[nH]c3ccccc32)CC1` [CBK149703] is lower in viability at 28.5 h, 10 µM: 102% for the first, 92.8% for the second.

`C=CCn1c(Cc2csc(NC(=O)c3cccc([N+](=O)[O-])c3)n2)n[nH]c1=S` [CBK295339] and `CC(=O)Nc1ccc(N/C=C(/C#N)c2nc(-c3ccc([N+](=O)[O-])cc3)cs2)cc1` [CBK262377] are the same in viability at 28.5 h, 10 µM: 106% for the first, 106% for the second.

Going from `O=C(CSc1nc(O)cc(O)n1)Nc1ccc(I)cc1` [CBK269467] to `COc1ccc(NC(=O)CC2NC3CCCCC3NC2=O)cc1` (stereo not drawn) [CBK266488], the viability at 28.5 h, 10 µM falls from 103% to 89.7%.

Going from `CCCCN(C)S(=O)(=O)NCCc1cn2ccccc2n1` [CBK304543] to `Cn1cccc1CNCc1ccccn1` [CBK269818C], the viability at 28.5 h, 10 µM falls from 101% to 96%.

First: CN(C)CCN1CCN(c2nc(-c3ccc4c(c3)OCO4)cnc2N)CC1 [CBK063495]
Second: CN(C)CCN1CCN(c2nccnc2-c2cccc(CO)c2)CC1 [CBK037047]
The viability at 28.5 h, 10 µM of the first is lower: 93.9% for the first, 94.7% for the second.

Going from `COc1ccccc1N1CCN(CCC(=O)Nc2ccc(Br)c(C)c2)CC1` [CBK264218] to `Fc1cccc(N2CCN(Cc3ccccc3)CC2)n1` [CBK000144], the viability at 28.5 h, 10 µM rises from 93.6% to 102%.

Going from `O=C(NCc1ccc2c(c1)OCO2)[C@H]1CN2CCC1C[C@@H]2Cn1cc(-c2ccccn2)nn1` (stereo partly drawn) [CBK289082] to `CN1C(=O)COc2ccccc2CCCC[C@@H]2[C@H]1CCCN2C(=O)Cn1ccnc1` [CBK292152], the viability at 28.5 h, 10 µM rises from 102% to 110%.

First: COc1ccc(C(=O)NC(c2ccco2)c2cc(Cl)c3cccnc3c2O)cc1 (stereo not drawn) [CBK263964]
Second: COc1ccc(C(=O)C2CCN(Cc3cccc4cccnc34)CC2)cc1 [CBK295192]
The viability at 28.5 h, 10 µM of the first is higher: 91.9% for the first, 85.3% for the second.

Going from `COc1cccc(Cc2cccc(C3CCN(C(=O)Cc4ccccc4)CC3)n2)c1` [CBK286147] to `O=C(Nc1cccc(N2CCNCC2)c1)c1cnc2ccccc2c1` [CBK029415T], the viability at 28.5 h, 10 µM falls from 96.9% to 83.2%.

`COc1cc(Cl)c(C)cc1NC(=O)c1ncn(-c2ccccc2)n1` [CBK269456] and `Cc1nn(-c2ccccc2)c2[nH]c(=O)c(CNC(C)(C)C)cc12` [CBK282921] are the same in viability at 28.5 h, 10 µM: 101% for the first, 101% for the second.

Going from `Cc1cc(C(=O)Cn2nc(C(=O)O)c3ccccc3c2=O)c(C)n1Cc1ccccc1Cl` [CBK297504] to `Cc1ccc(C)c(NC(CC(=O)c2ccccc2)C(=O)O)c1` (stereo not drawn) [CBK265485], the viability at 28.5 h, 10 µM falls from 111% to 102%.

Going from `O=C(Cn1cnc2ccccc2c1=O)NCCc1ccsc1` [CBK287844] to `Cc1ccc(OCc2occc2C(=O)NCCn2ccnc2C)cc1` [CBK306725], the viability at 28.5 h, 10 µM rises from 92.6% to 93.7%.

First: O=C(CC1(O)C(=O)N(CCc2ccccc2)c2ccc(Br)cc21)c1ccncc1 (stereo not drawn) [CBK293976]
Second: O=C1CC2(C(=O)N1Cc1ccccc1)C(=O)N(Cc1csc(-c3ccccc3)n1)c1ccccc12 (stereo not drawn) [CBK075673]
The viability at 28.5 h, 10 µM of the first is lower: 90.2% for the first, 112% for the second.

First: CC(C)c1cc(C(=O)N2CCCCCC2c2cnn(C)c2)no1 (stereo not drawn) [CBK284971]
Second: CCn1c(CNC(=O)c2cc(C(C)C)on2)nc2ccccc21 [CBK281393]
The viability at 28.5 h, 10 µM of the first is higher: 108% for the first, 94.2% for the second.

First: Cc1nnc(N2C(=O)c3oc4ccc(Cl)cc4c(=O)c3C2c2cccc(OCc3ccccc3)c2)s1 (stereo not drawn) [CBK266870]
Second: Cn1c(SCCCN2C(=O)c3cccc4cccc(c34)C2=O)nnc1-c1ccncc1 [CBK268951]
The viability at 28.5 h, 10 µM of the first is higher: 95% for the first, 93.1% for the second.

Going from `CC(=O)N1C[C@@H]2OCC(=O)N(Cc3nccn3C)[C@@H]2C1` [CBK289668] to `CC(C)C[C@@H]1N[C@H](C(=O)NC2CCC2)Cc2cn(Cc3nccn3C)c3cccc1c23` [CBK289422], the viability at 28.5 h, 10 µM rises from 90.6% to 101%.

Compared with `Cc1nc2ccc(C(=O)NC(C)c3ccccn3)cc2s1` (stereo not drawn) [CBK281890], `Cc1cnc(Nc2cccc(C3CCCN3C(=O)CCOc3ccccc3C)n2)s1` (stereo not drawn) [CBK285972] is higher in viability at 28.5 h, 10 µM: 94.6% for the first, 112% for the second.

Compared with `Fc1ccc(OCc2nnn[nH]2)c(F)c1` [CBK269473], `CCc1c(C(=O)NC2CCCOC2)[nH]c2ccc(F)cc12` (stereo not drawn) [CBK283115] is lower in viability at 28.5 h, 10 µM: 99.9% for the first, 97.5% for the second.

Going from `O=C1CC(c2ccc(F)cc2)Cc2[nH]c(=O)c(C(=O)O)cc21` (stereo not drawn) [CBK287200] to `O=C(Nc1ccc(F)cc1)OCC1COc2ccccc2C1` (stereo not drawn) [CBK017146], the viability at 28.5 h, 10 µM falls from 88.8% to 85.5%.

Going from `O=c1c(N2CCN(CCOc3ccccc3)CC2)nccn1CCOc1cc(F)c(F)cc1F` [CBK045934C] to `Cc1nccn1CC1(O)CCN(Cc2cn(C)c3ccccc23)CC1` [CBK285017], the viability at 28.5 h, 10 µM falls from 103% to 102%.

Going from `O=C(O)C1CCCN(C(=O)NCc2cccc(C(F)(F)F)c2)C1` (stereo not drawn) [CBK161345] to `CN1CCCC(C(=O)Nc2cnc(-c3cccc(C(F)(F)F)c3)c(-c3cccnc3)n2)C1` (stereo not drawn) [CBK036787], the viability at 28.5 h, 10 µM falls from 94.5% to 87.2%.

First: COc1ccc(C)cc1S(=O)(=O)n1cc2c3c(cccc31)CN(C(=O)CN(C)C)C2 [CBK155549T]
Second: COc1ccc(CN(C(=O)CCc2c(C)[nH]c(=O)c(C#N)c2C)C2CC2)cc1 [CBK295667]
The viability at 28.5 h, 10 µM of the first is lower: 93.3% for the first, 97.6% for the second.

Going from `COc1cc2c(cc1OC)CN(CC1CCCCC1)CC2` [CBK138321] to `COc1ccc([C@@]23CCCN(C(=O)Nc4ccc(SC(F)(F)F)cc4)C[C@@H]2N(C)CC3)cc1OC` [CBK056681T], the viability at 28.5 h, 10 µM falls from 101% to 92.2%.

Going from `COCCn1cc(C(=O)N2CCN3CCCCC3C2)c2ccccc21` (stereo not drawn) [CBK305287] to `CC(Oc1ccccc1)C(=O)NCCN1CCOCC1` (stereo not drawn) [CBK263812], the viability at 28.5 h, 10 µM falls from 107% to 94.1%.

Going from `Cc1cc(C(=O)N2CCN(c3ncccn3)CC2)n[nH]1` [CBK144526] to `O=C(NC(c1ccc(F)cc1)c1ccccn1)C1CCN(C(=O)c2ccno2)CC1` (stereo not drawn) [CBK059705], the viability at 28.5 h, 10 µM falls from 111% to 99.9%.

Going from `CC(=O)Nc1cccc(-c2cnc3[nH]c(=O)n(C4CC4)c3n2)c1` [CBK064859] to `O=C(Nc1ccc(N2CCNCC2)c2ccccc12)c1cccnc1` [CBK036336T], the viability at 28.5 h, 10 µM falls from 103% to 92.9%.

Compared with `Cc1nnc(N/N=C/c2ccc(OC3CCCC3)cc2)nc1O` [CBK058025], `Cc1nc2ccccn2c1CN1CCC(Oc2ccc(F)cc2)CC1` [CBK281803] is lower in viability at 28.5 h, 10 µM: 104% for the first, 90.1% for the second.

Compared with `COc1ccccc1-c1nnc2sc(-c3cnccn3)nn12` [CBK268428], `Cn1cc(-c2nccnc2OC(c2ccccc2)c2ccccc2)cn1` [CBK107073] is higher in viability at 28.5 h, 10 µM: 100% for the first, 103% for the second.

Going from `Cc1ccc(OCC(=O)N2N=C(CC(C)C)CC2(O)C(F)(F)F)cc1C` (stereo not drawn) [CBK293935] to `CCc1c(C)nc2c(C)cccc2c1SCC(=O)O` [CBK263554], the viability at 28.5 h, 10 µM falls from 91.5% to 87.6%.

Compared with `Clc1ccc(-c2c[nH]c([C@@H]3COCCN3Cc3csnn3)n2)cc1` [CBK289309], `O=C(O)CC1S/C(=N/N=C/c2ccc(-c3ccc(Cl)cc3)o2)NC1=O` (stereo not drawn) [CBK264595] is higher in viability at 28.5 h, 10 µM: 87.1% for the first, 125% for the second.

Going from `CC(C)[C@@H](N)C(=O)N1CC[C@@H]2NC(=O)[C@@H](Cc3ccccc3)NC(=O)C3(C/C=C/C[C@H]2C1)CCOCC3` [CBK292201] to `O=C1NC(=O)C(CC(=O)N2CCC(Cn3cncn3)(C3CCCCC3)CC2)N1` (stereo not drawn) [CBK136808], the viability at 28.5 h, 10 µM falls from 112% to 94.3%.

Compared with `O=C(NCCC1=CCCCC1)Nc1ccc(SC(F)(F)F)cc1` [CBK043725], `CCCS(=O)(=O)N1CCC(C(=O)NCc2ccc(Cl)cc2Cl)CC1` [CBK305559] is higher in viability at 28.5 h, 10 µM: 85.7% for the first, 102% for the second.

Compared with `CCC(CN1CCN(C)CC1)NC(=O)Cc1coc2cc(C)ccc12` (stereo not drawn) [CBK282790], `CC(C)(C)C(=O)CN1CCC2(CC1)NCCc1c2[nH]c2cc(F)ccc12` [CBK039568] is lower in viability at 28.5 h, 10 µM: 102% for the first, 90.2% for the second.

Going from `CC(=O)NC[C@@H]1C=C(C)[C@H](Cc2nnc(-c3cncn3C)o2)C[C@H]1C(C)C` [CBK289225] to `Cc1nnc2n1CCN(C(=O)CC1OCCc3sccc31)C2` (stereo not drawn) [CBK304956], the viability at 28.5 h, 10 µM falls from 107% to 94%.

Going from `O=C1C2(Cc3ccccc3)CN3CN(C2)CC1(Cc1ccccc1)C3` [CBK261341] to `Cn1cnnc1SCC(=O)N1CCc2ccccc21` [CBK287576], the viability at 28.5 h, 10 µM falls from 89.9% to 82.7%.

Going from `CCOC(=O)c1cc(-c2cccc(Cl)c2)oc1C` [CBK045775] to `CCn1c(C(O)c2ccccc2)n[nH]c1=S` (stereo not drawn) [CBK015110], the viability at 28.5 h, 10 µM falls from 104% to 90.5%.

First: Nc1nonc1N/N=C/c1ccccc1F [CBK028838]
Second: c1ccc2nc(N3CCCC3)c(Sc3nccs3)nc2c1 [CBK093794]
The viability at 28.5 h, 10 µM of the first is lower: 68.4% for the first, 110% for the second.

Compared with `CC(=O)SCCC(=O)N1C(C)CCCC1C(=O)O` (stereo not drawn) [CBK261315], `COC(=O)N/N=C(/C)c1ccc(C)cc1` [CBK016149] is higher in viability at 28.5 h, 10 µM: 93.1% for the first, 109% for the second.

With `S=c1nc[nH]cc1-c1ccc(Br)cc1` [CBK005833] the viability at 28.5 h, 10 µM was 87.6%.

From article PMC12040169 (PLOS Biology, 2025)
